Key:
[1] = tested on: Wild type Saccharomyces cerevisiae cells (strain BY4741); experiment: Growth of yeast cells in the presence or absence of VPA and/or NaCl (absorbance at 550 nm); type: cell-based; details: single agent (VPA or NaCl) in synthetic medium, 30° C.
Description: The combined effect of osmotic stress and valproate (VPA) is deleterious to yeast cells. Wild type Saccharomyces cerevisiae cells (strain BY4741) were grown in synthetic medium in the presence or absence of VPA and/or NaCl. Cells were incubated at 30° C., and growth was monitored spectrophotometrically by measuring absorbance at 550 nm.

[2] = tested on: Candida albicans (Strain Sc 5314); experiment: Hyphae formation in Candida cells, serum-induced (percentage of cells forming hyphal structures); type: cell-based; details: in the presence of VPA
Description: Hyphae formation is at its peak after 3 hours of incubation at 37° C. at 200 rpm. An overnight culture of Candida albicans (Strain Sc 5314) was prepared using serum-free RPMI-64 medium. Cells were pelleted at 7,500×g and resuspended in RPMI-64 supplemented with 10% Fetal Bovine Serum (FBS) to induce hyphae formation. Cultures were incubated at 37° C. in a rotary shaker at 200 rpm. Samples were drawn out at one-hour intervals and observed for development of hyphal structures.
(§1) An overnight culture of C. albicans was prepared using serum-free RPMI-64 medium. Cells were pelleted at 7,500×g and resuspended in RPMI-64/10% FBS with or without 0.1M NaCl and/or 2 mM VPA as indicated. Cultures were incubated at 37° C. in a rotary shaker at 200 rpm for 3 hours. For each sample, 300-500 cells were counted and the percentage of cells forming hyphal structures was calculated. Values represent the mean of three independent experiments±S.E. (error bars).
as §1, with “sorbitol” for “NaCl”, “Values represent the mean of three independent experiments±S.E. (error bars).” left out

Row | SMILES | Growth decreased [1] | Transformation of Candida yeast cells into hyphae forming cells [2]
1 | CCCC(CCC)C(=O)O [VPA, Valproic acid (di-n-propyl acetic acid)] | 50% | greatly reduced
2 | [Cl-].[Na+] [NaCl, sodium chloride] | 50% | –

— patent US10617659B2, “Valproate as a topical anti-fungal treatment” (Wayne State University, priority 2016, dated 2020)
